Where a name gives a salt, the structure may show the parent alone.
Tests used:
[1] = molecular target: Human MET (residues 956-1390) (Homo sapiens (Human), UniProt P08581); assay: Human Met kinase assay, HTRF KinEase (Example D-2); assay type: biochemical; conditions: protocol of Example D-2 (other compounds); read-out: c-Met IC50
Outline: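 HTRF KinEase assay on MET residues 956-1390 (0.1 ng/well) in buffer with 5 mM MgCl2, 1 mM DTT and 1 mM MnCl2, with biotinylated peptide substrate, ATP at Km, 10 compound concentrations and 3% DMSO final, run 40 min at room temperature. The […] signal was normalized to DMSO and to 1 μM reference compound, and IC50 came from a 4-parameter logistic fit.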

[2] = molecular target: Met (phospho-Met, HGF-stimulated PC-3 prostate cancer cells) (Homo sapiens (Human), UniProt P08581); assay: Met autophosphorylation ELISA in PC-3 cells (Example F); assay type: cell-based; conditions: cellular activity; Met autophosphorylation ELISA in PC-3 cells; read-out: c-Met IC50
Outline: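 IC50 values derive from a 4-parameter logistic fit of phospho-Met (panTyr) sandwich ELISA signals in PC-3 lysates, scaled between DMSO and reference-inhibitor wells. Cells, starved 3 h in serum-free medium, had 1 h compound exposure (8 doses, 0.3% DMSO) before 10 min stimulation with 100 ng/mL HGF.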

[3] = molecular target: KDR (phospho-KDR, VEGF165-stimulated HUVEC cells) (Homo sapiens (Human), UniProt P35968); assay: KDR autophosphorylation ELISA in HUVEC cells (Example G); assay type: cell-based; conditions: cellular activity; KDR autophosphorylation ELISA in HUVEC cells
Outline: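 First, endothelial cells were cultured a day, then kept without serum for another day. Next came 1 h with serially diluted compound, a brief 5 min VEGF165 stimulus (100 ng/mL), rapid lysis, and ELISA detection of receptor phosphorylation relative to stimulated and non-stimulated controls.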

Sequence of Human MET (residues 956-1390) (P08581 956-1390): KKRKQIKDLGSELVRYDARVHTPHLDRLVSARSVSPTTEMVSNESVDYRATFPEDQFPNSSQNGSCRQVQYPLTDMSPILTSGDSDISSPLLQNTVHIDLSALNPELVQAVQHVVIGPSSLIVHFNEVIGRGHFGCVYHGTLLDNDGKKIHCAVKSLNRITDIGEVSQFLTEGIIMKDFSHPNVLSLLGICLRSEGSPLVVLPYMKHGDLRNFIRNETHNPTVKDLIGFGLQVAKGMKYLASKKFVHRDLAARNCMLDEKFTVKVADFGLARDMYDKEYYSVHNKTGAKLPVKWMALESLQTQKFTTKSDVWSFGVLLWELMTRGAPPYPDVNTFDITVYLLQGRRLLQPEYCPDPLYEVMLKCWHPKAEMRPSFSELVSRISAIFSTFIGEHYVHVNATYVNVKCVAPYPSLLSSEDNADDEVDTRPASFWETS
Sequence of Met (phospho-Met, HGF-stimulated PC-3 prostate cancer cells) (P08581 25-1390): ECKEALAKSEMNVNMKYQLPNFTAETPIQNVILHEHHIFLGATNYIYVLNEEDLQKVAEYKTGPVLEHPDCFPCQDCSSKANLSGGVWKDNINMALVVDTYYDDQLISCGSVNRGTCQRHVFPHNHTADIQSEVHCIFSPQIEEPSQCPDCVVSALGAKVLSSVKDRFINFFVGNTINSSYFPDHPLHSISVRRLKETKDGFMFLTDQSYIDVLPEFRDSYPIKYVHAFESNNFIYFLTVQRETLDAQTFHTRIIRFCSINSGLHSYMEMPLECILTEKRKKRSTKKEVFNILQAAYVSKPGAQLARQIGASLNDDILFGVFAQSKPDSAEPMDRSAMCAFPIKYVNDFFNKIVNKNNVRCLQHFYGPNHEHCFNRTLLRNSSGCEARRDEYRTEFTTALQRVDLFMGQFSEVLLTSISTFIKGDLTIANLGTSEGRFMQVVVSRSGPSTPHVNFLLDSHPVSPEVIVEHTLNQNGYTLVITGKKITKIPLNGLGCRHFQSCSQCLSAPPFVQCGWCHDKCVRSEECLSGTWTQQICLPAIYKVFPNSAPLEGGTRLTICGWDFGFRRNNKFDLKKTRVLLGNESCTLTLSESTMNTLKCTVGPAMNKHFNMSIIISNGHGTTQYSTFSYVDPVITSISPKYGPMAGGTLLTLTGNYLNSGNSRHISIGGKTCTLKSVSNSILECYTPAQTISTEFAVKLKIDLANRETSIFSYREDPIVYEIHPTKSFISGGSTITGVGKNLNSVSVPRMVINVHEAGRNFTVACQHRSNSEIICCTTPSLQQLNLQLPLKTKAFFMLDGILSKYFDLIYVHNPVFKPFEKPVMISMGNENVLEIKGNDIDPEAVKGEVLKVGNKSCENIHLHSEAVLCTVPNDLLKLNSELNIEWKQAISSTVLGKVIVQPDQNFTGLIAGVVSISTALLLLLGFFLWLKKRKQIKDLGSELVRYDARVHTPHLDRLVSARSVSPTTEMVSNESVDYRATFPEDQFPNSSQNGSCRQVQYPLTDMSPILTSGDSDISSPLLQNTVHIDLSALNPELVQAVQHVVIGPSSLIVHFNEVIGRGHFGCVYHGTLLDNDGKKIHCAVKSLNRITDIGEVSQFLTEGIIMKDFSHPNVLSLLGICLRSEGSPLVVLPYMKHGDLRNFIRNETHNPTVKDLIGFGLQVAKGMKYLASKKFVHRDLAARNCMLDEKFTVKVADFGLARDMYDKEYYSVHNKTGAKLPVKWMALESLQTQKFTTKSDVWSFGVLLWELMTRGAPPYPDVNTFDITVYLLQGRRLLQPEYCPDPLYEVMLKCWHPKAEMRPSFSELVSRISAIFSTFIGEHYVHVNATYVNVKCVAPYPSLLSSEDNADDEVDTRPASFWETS
Sequence of KDR (phospho-KDR, VEGF165-stimulated HUVEC cells) (P35968 20-1356): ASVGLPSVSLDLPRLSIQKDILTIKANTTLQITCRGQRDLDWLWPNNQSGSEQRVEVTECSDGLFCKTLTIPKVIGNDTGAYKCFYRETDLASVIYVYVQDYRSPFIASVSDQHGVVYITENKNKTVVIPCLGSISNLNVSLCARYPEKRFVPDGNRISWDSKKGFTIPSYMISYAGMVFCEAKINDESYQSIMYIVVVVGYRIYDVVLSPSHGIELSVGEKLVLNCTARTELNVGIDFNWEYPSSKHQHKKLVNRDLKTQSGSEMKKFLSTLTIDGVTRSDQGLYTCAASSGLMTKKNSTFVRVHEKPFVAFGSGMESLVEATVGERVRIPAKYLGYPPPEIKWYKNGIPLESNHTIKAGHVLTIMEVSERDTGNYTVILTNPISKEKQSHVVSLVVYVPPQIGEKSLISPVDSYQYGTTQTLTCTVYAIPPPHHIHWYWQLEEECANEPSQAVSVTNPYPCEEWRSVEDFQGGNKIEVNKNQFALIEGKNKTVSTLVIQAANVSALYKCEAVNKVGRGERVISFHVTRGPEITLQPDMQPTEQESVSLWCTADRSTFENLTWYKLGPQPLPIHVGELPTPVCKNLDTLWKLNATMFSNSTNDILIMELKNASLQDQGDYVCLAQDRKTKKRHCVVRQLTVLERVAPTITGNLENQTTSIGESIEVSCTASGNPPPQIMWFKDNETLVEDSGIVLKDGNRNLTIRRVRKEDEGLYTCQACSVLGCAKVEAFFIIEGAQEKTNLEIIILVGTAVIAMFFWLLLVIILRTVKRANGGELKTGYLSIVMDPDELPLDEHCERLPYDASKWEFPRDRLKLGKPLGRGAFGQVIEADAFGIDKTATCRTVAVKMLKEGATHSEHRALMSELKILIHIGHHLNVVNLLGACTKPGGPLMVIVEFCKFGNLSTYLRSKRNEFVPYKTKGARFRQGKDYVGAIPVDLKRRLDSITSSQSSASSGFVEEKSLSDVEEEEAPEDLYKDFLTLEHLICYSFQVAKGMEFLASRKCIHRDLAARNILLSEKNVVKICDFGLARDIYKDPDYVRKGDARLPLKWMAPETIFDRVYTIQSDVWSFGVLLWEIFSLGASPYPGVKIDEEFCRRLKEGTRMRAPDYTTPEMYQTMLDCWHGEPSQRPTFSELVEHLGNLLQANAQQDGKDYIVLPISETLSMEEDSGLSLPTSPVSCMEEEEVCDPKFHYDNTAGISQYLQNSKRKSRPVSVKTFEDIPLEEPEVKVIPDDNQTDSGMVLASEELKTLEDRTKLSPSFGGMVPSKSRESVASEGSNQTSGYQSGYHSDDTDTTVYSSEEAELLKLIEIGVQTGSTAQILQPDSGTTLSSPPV

| SMILES | IC50 [1] [nM] | IC50 [2] [nM] | IC50 [3] [nM] |
| --- | --- | --- | --- |
| COc1cc2nccc(Oc3ccc(NC(=O)C4=C5CCCN5CC(c5ccc(F)cc5)C4=O)cc3F)c2nc1OC (racemic) [Compound 373, N-[4-[(6,7-dimethoxy-1,5-naphthyridin-4-yl)oxy]-3-fluorophenyl]-6-(4-fluorophenyl)-7-oxo-2,3,5,6-tetrahydro-1H-indolizine-8-carboxamide] | < 100 | < 100 | > 300 |
| COc1cc2nccc(Oc3ccc(NC(=O)C4=C5CCCN5CC(c5ccc(F)cc5)C4=O)cc3F)c2nc1OC (single isomer, unassigned; enantiomer 1) [Compound 374, N-[4-[(6,7-dimethoxy-1,5-naphthyridin-4-yl)oxy]-3-fluorophenyl]-6-(4-fluorophenyl)-7-oxo-2,3,5,6-tetrahydro-1H-indolizine-8-carboxamide, enantiomer 1] | < 100 | < 100 | > 300 |
| COc1cc2nccc(Oc3ccc(NC(=O)c4cn(C)cc(-c5ccc(Cl)cc5)c4=O)cc3F)c2nc1OC [Compound 38, 5-(4-Chlorophenyl)-N-[4-[(6,7-dimethoxy-1,5-naphthyridin-4-yl)oxy]-3-fluorophenyl]-1-methyl-4-oxopyridine-3-carboxamide hydrochloride] | < 100 | 100 to 300 | < 100 |
| COc1cc2nccc(Oc3ccc(NC(=O)c4cn(C)cc(-c5ccccc5)c4=O)cc3)c2nc1OC [Compound 39, N-[4-[(6,7-Dimethoxy-1,5-naphthyridin-4-yl)oxy]phenyl]-1-methyl-4-oxo-5-phenylpyridine-3-carboxamide hydrochloride] | < 100 | < 100 | < 100 |
| COc1cnc2c(Oc3ccc(NC(=O)c4cn(C)cc(-c5ccccc5)c4=O)cc3F)ccnc2c1 [Compound 40, N-[3-Fluoro-4-[(7-methoxy-1,5-naphthyridin-4-yl)oxy]phenyl]-1-methyl-4-oxo-5-phenylpyridine-3-carboxamide hydrochloride] | < 100 | < 100 | < 100 |
| COc1cnc2c(Oc3ccc(NC(=O)c4ncc(C)n(-c5ccc(F)cc5)c4=O)cc3)ccnc2c1 [Compound 263, 4-(4-Fluorophenyl)-N-[4-[(7-methoxy-1,5-naphthyridin-4-yl)oxy]phenyl]-5-methyl-3-oxopyrazine-2-carboxamide] | < 100 | < 100 | > 300 |
| COc1ccc2nccc(Oc3ccc(NC(=O)c4ncc(C)n(-c5ccc(F)cc5)c4=O)cc3F)c2n1 [Compound 264, N-[3-Fluoro-4-[(6-methoxy-1,5-naphthyridin-4-yl)oxy]phenyl]-4-(4-fluorophenyl)-5-methyl-3-oxopyrazine-2-carboxamide] | < 100 | < 100 | > 300 |
| COc1cnc2c(Oc3ccc(NC(=O)c4cnc(C)n(-c5ccc(F)cc5)c4=O)cc3F)ccnc2c1 [Compound 265, N-[3-Fluoro-4-[(7-methoxy-1,5-naphthyridin-4-yl)oxy]phenyl]-1-(4-fluorophenyl)-2-methyl-6-oxopyrimidine-5-carboxamide] | < 100 | < 100 | 100 to 300 |
| COc1cnc2c(Oc3ccc(NC(=O)c4cnc(C)n(-c5ccc(F)cc5)c4=O)cc3)ccnc2c1 [Compound 266, 1-(4-Fluorophenyl)-N-[4-[(7-methoxy-1,5-naphthyridin-4-yl)oxy]phenyl]-2-methyl-6-oxopyrimidine-5-carboxamide] | < 100 | < 100 | > 300 |
| COc1cc2nccc(Oc3ccc(NC(=O)c4cn(C)cc(-c5c(C)cc(F)cc5C)c4=O)cc3F)c2nc1OC [Compound 268, N-[4-[(6,7-Dimethoxy-1,5-naphthyridin-4-yl)oxy]-3-fluorophenyl]-5-(4-fluoro-2,6-dimethylphenyl)-1-methyl-4-oxopyridine-3-carboxamide] | < 100 | < 100 | > 300 |
| COCc1c(-c2ccc(F)cc2)c(=O)c(C(=O)Nc2ccc(Oc3ccnc4cc(OC)c(OC)nc34)c(F)c2)cn1C [Compound 269, N-[4-[(6,7-Dimethoxy-1,5-naphthyridin-4-yl)oxy]-3-fluorophenyl]-5-(4-fluorophenyl)-6-(methoxymethyl)-1-methyl-4-oxopyridine-3-carboxamide] | < 100 | < 100 | > 300 |
| COCc1c(-c2ccc(F)cc2)c(=O)c(C(=O)Nc2ccc(Oc3ccnc4cc(OC)cnc34)c(F)c2)cn1C [Compound 270, N-[3-Fluoro-4-[(7-methoxy-1,5-naphthyridin-4-yl)oxy]phenyl]-5-(4-fluorophenyl)-6-(methoxymethyl)-1-methyl-4-oxopyridine-3-carboxamide] | < 100 | 100 to 300 | > 300 |
| CCn1cc(C(=O)Nc2ccc(Oc3ccnc4cc(OC)c(OC)nc34)c(F)c2)c(=O)c(-c2ccc(F)cc2)c1CO [Compound 271, N-[4-[(6,7-Dimethoxy-1,5-naphthyridin-4-yl)oxy]-3-fluorophenyl]-1-ethyl-5-(4-fluorophenyl)-6-(hydroxymethyl)-4-oxopyridine-3-carboxamide] | < 100 | < 100 | 100 to 300 |
| CCn1cc(C(=O)Nc2ccc(Oc3ccnc4cc(OC)c(OC)nc34)cc2)c(=O)c(-c2ccc(F)cc2)c1CO [Compound 272, N-[4-[(6,7-Dimethoxy-1,5-naphthyridin-4-yl)oxy]phenyl]-1-ethyl-5-(4-fluorophenyl)-6-(hydroxymethyl)-4-oxopyridine-3-carboxamide] | < 100 | < 100 | > 300 |
| CCn1cc(C(=O)Nc2ccc(Oc3ccnc4cc(OC)cnc34)c(F)c2)c(=O)c(-c2ccc(F)cc2)c1CO [Compound 273, 1-Ethyl-N-[3-fluoro-4-[(7-methoxy-1,5-naphthyridin-4-yl)oxy]phenyl]-5-(4-fluorophenyl)-6-(hydroxymethyl)-4-oxopyridine-3-carboxamide] | < 100 | < 100 | > 300 |
| CCn1cc(C(=O)Nc2ccc(Oc3ccnc4cc(OC)cnc34)cc2)c(=O)c(-c2ccc(F)cc2)c1CO [Compound 274, 1-Ethyl-5-(4-fluorophenyl)-6-(hydroxymethyl)-N-[4-[(7-methoxy-1,5-naphthyridin-4-yl)oxy]phenyl]-4-oxopyridine-3-carboxamide] | < 100 | < 100 | > 300 |
| Cc1ccc(C(=O)Nc2ccc(Oc3ccnc4cc(OCc5ccccc5)cnc34)c(F)c2)c(=O)n1-c1ccc(F)cc1 [Compound 275, 1-(4-Fluorophenyl)-N-[3-fluoro-4-[(7-phenylmethoxy-1,5-naphthyridin-4-yl)oxy]phenyl]-6-methyl-2-oxopyridine-3-carboxamide] | 100 to 300 | < 100 | < 100 |
| COc1ccc2nccc(Oc3ccc(NC(=O)c4ccc(C)n(-c5ccc(F)cc5C)c4=O)cc3)c2n1 [Compound 276, 1-(4-Fluoro-2-methylphenyl)-N-[4-[(6-methoxy-1,5-naphthyridin-4-yl)oxy]phenyl]-6-methyl-2-oxopyridine-3-carboxamide] | 100 to 300 | 100 to 300 | < 100 |
| Cc1nc(C)c(-c2ccc(F)cc2)c(O)c1C(=O)Nc1ccc(Oc2ccnc3cc(OCc4ccccc4)cnc23)c(F)c1 [Compound 277, 5-(4-Fluorophenyl)-N-[3-fluoro-4-[(7-phenylmethoxy-1,5-naphthyridin-4-yl)oxy]phenyl]-4-hydroxy-2,6-dimethylpyridine-3-carboxamide] | < 100 | < 100 | < 100 |
| Cc1nc(C)n(-c2ccc(F)cc2)c(=O)c1C(=O)Nc1ccc(Oc2ccnc3cc(OCc4ccccc4)cnc23)c(F)c1 [Compound 278, 1-(4-Fluorophenyl)-N-[3-fluoro-4-[(7-phenylmethoxy-1,5-naphthyridin-4-yl)oxy]phenyl]-2,4-dimethyl-6-oxopyrimidine-5-carboxamide] | < 100 | < 100 | < 100 |
| COc1cc2nccc(Oc3ccc(NC(=O)c4c(C)cc(C)n(-c5ccc(F)cc5)c4=O)cc3F)c2nc1OC [Compound 279, N-[4-[(6,7-Dimethoxy-1,5-naphthyridin-4-yl)oxy]-3-fluorophenyl]-1-(4-fluorophenyl)-4,6-dimethyl-2-oxopyridine-3-carboxamide] | < 100 | < 100 | < 100 |
| COc1cnc2c(Oc3ccc(NC(=O)c4c(C)cc(C)n(-c5ccc(F)cc5)c4=O)cc3F)ccnc2c1 [Compound 280, N-[3-Fluoro-4-[(7-methoxy-1,5-naphthyridin-4-yl)oxy]phenyl]-1-(4-fluorophenyl)-4,6-dimethyl-2-oxopyridine-3-carboxamide] | < 100 | < 100 | < 100 |
| COc1ccc2nccc(Oc3ccc(NC(=O)c4c(C)cc(C)n(-c5ccc(F)cc5)c4=O)cc3F)c2n1 [Compound 281, N-[3-Fluoro-4-[(6-methoxy-1,5-naphthyridin-4-yl)oxy]phenyl]-1-(4-fluorophenyl)-4,6-dimethyl-2-oxopyridine-3-carboxamide] | < 100 | < 100 | < 100 |

Source: patent US12371428B2 (Exelixis, Inc., priority 2019, dated 2025)
